Structures are written as SMILES.

For experiment [1], the system named is MDBK cells (established cell line). Nature of the experiment: Culturability when L-cystine was replaced with L-cysteine, MDBK (Example 9). The format is cell-based, bovine. Conditions: end of third subculture, 0.072 g/L. The method, then: (§1) Cells used: MDBK cells (established cell line), RL34 cells (established cell line), duck liver-derived cells (primary cultured cells)
(§2) Amount of L-cysteine hydrochloride monohydrate added: Since L-cystine is a dimer of L-cysteine, L-cysteine hydrochloride monohydrate was added in an amount twice the number of moles of L-cystine.
(§3) MDBK cells and RL34 cells were each subcultured in a complete medium prepared by adding 1% PSA and 10% FBS to the above basal medium. Duck liver-derived cells were also subcultured in a complete medium prepared by adding 1% PSA and 10% serum to the above basal medium. In both cases, subculture was performed every 3 to 4 days, and subculture was performed up to the third time.

For experiment [2], the system named is RL34 cells (established cell line). The experiment is described as follows: Culturability when L-cystine was replaced with L-cysteine, RL34 (Example 9). It is filed as cell-based, rat. The conditions noted are these: RL34, end of third subculture, 0.072 g/L. The protocol:
as §1, §2, §3

Experiment [3] deals with duck liver-derived cells (primary cultured cells). Nature of the experiment: Culturability when L-cystine was replaced with L-cysteine, duck liver-derived cells (Example 9). The format is cell-based. The conditions noted are these: end of third subculture, 0.072 g/L. The method, then:
as §1, §2, §3

Experiment [4] deals with mouse-derived myoblast cell line C2C12. Nature of the experiment: Cell culture test of amino acid conditions, C2C12 (Example 1). The conditions noted are these: C2C12, from condition 19 (1/8 amount) vs condition 20. It is filed as cell-based. The protocol: Of the constituents to be contained in Dulbecco's Modified Eagle Medium (DMEM), those excluding amino acids was dissolved in ion-exchanged water to prepare A.A.-IMEM Seven types of yeast extract ([…], and J) shown below were each further added to the A.A.-IMEM Buffer, so that the final concentration in the medium was 1 g/L. Various amino acids required for the proliferation of cultured cells in DMEM were added to “A.A.-IMEM Buffer+yeast extract” according to conditions 1 to 16 in Table 3, and a cell culture test was conducted. […] The amount of each amino acid added was the same as that contained in the formulation of DMEM. In addition, the same amino acid composition as that of DMEM was used as P.C. (positive control), while the same amino acid composition as that of DMEM but with 1⁄8th the amount added was used as condition 19, and that with 1/32nd the amount added was used as condition 20. All reagents used in the experiment were of food additive grade. 10% heat-inactivated fetal bovine serum (FBS) and 1% penicillin-streptomycin-amphotericin (PSA) were further added to A.A.-IMEM Buffer+yeast extract and the amino acids of each condition listed in Table 3, so as to conduct a cell culture test. For the cell culture test, mouse-derived myoblast cell line C2C12 was used. […]

In the case of `Cl.N[C@@H](CS)C(=O)O.O` [L-cysteine hydrochloride monohydrate], the “difference in culturability due to replacement of L-cystine” value in experiment [1], in experiment [2] and in experiment [3] was “almost no difference in culturability” in each case.

As for `N[C@@H](CSSC[C@H](N)C(=O)O)C(=O)O` [L-cystine], in experiment [4], the “amount of amino acid required in the medium” value was “at least 6.13 mg/L”.

In the case of `NC(=O)CC[C@H](N)C(=O)O` [L-glutamine], the “amount of amino acid required in the medium” value in experiment [4] is given as no less than 74.5 mg/L.
